Assay results published in patent US20230365559A1, “NOVEL AMINOPYRIDINES AND THEIR USE IN TREATING CANCER” (priority 2020, published 2023).
Values joined by “and” are separate entries in the source; they are usually repeats but may differ in a detail not shown here. Identical values can stand only once.

Tests used:
UT-SCC-54C cells [1] = experiment: Radiosensitisation of UT-SCC-54C HNSCC cells, clonogenic survival, oxic and anoxic (Table 18); type: cell-based, human; conditions: for Plating efficiency drug/no drug: no radiation; for sensitisation of UT-SCC-54C cells selectively under anoxia: oxic vs anoxic, clonogenic survival, FIGS. 9 and 10
human DNA-PK = human DNA-PK (Homo sapiens, UniProt P78527); experiment: Inhibition of DNA-PKcs kinase activity, HotSpot assay (Reaction Biology), [γ-33P]-ATP phosphorylation of peptide substrate; type: biochemical; conditions: 10 μM ATP, 10 μg/ml DNA; mean of two replicates; Table 12; read-out: Inhibition of kinase activity (as IC50) DNA-PK (converted)
human PI3Kα (p110α/p85α) = human PI3Kα (p110α/p85α) (Homo sapiens, UniProt P42336); experiment: Inhibition of PI3Kα kinase activity, ADP-Glo Assay (Reaction Biology); type: biochemical; conditions: 10 μM ATP; mean of two replicates; Table 12; read-out: Inhibition of kinase activity (as IC50) PICK
human mTOR = human mTOR (Homo sapiens, UniProt P42345); experiment: Inhibition of mTOR kinase activity, HotSpot assay, phosphorylation of 4EPB1; conditions: Inhibition of kinase activity (as IC50) mTOR (nM), 10 μM ATP; mean of two replicates; Table 12
UT-SCC-54C cells [2] = experiment: Radiosensitisation of UT-SCC-54C HNSCC cells, regrowth (sulforhodamine B) assay, oxic (Table 16); type: cell-based, human; conditions: for IC50: Homo sapiens, read-out: IC50; for S50: compound in combination with 3 Gy of radiation, 50% inhibition of regrowth fraction, UT-SCC-54C; for S50 / radiosensitisation / differential growth inhibition of UT-SCC-54C cells: oxic; for radiosensitisation / differential growth inhibition of UT-SCC-54C cells: 0 or 3 Gy, regrowth assay

Chain of human PI3Kα (p110α/p85α) (P42336 whole entry): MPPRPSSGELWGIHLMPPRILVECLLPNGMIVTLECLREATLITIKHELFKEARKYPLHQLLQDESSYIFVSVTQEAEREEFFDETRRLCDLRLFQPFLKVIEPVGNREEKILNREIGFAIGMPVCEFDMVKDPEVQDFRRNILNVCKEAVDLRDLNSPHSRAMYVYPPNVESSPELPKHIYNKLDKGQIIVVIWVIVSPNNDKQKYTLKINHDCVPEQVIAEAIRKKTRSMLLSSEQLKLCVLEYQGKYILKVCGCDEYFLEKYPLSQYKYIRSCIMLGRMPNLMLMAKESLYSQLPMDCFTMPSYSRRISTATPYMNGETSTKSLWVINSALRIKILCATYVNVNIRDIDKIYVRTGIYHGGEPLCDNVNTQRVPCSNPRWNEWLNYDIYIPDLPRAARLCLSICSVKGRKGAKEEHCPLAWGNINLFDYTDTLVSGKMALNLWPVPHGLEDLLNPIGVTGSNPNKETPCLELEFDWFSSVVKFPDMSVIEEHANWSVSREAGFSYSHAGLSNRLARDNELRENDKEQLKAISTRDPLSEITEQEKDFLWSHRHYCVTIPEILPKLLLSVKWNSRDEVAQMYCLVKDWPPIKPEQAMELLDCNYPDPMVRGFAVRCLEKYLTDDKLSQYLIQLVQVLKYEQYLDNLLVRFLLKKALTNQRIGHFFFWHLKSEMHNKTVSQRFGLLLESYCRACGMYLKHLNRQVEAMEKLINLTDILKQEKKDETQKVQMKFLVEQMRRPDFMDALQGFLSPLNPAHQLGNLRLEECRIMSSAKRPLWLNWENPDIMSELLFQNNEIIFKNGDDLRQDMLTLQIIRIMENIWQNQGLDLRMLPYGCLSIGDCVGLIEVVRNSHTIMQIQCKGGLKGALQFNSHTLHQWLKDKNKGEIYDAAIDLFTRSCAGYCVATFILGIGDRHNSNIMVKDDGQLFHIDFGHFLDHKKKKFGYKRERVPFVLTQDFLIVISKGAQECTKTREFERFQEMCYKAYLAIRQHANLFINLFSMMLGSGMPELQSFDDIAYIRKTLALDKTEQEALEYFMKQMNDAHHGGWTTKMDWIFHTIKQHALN
Chain of human PI3Kα (p110α/p85α) (P27986 whole entry partner): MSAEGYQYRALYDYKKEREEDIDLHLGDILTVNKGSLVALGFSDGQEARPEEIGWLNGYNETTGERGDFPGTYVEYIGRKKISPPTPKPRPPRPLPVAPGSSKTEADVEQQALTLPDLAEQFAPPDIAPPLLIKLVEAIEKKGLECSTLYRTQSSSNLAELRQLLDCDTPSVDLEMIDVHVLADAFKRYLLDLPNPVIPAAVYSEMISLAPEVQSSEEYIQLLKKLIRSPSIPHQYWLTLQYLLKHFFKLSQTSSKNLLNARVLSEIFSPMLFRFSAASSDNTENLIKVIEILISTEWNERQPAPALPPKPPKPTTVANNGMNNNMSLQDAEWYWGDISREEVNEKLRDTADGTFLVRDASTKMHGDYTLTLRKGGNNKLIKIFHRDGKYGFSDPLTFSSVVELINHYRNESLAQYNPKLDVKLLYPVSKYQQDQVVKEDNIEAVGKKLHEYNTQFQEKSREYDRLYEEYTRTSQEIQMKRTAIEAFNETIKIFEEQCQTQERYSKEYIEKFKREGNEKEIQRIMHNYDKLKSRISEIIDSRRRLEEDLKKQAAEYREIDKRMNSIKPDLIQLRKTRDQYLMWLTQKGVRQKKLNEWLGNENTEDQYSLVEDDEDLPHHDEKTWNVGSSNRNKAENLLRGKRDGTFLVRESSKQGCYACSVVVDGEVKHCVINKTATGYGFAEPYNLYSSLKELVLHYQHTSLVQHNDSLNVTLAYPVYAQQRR

COc1ccc(-n2c(=O)n(C)c3cnc(Nc4ccc(OC)cc4C)cc32)cc1 [Compound 195, 6-((4-Methoxy-2-methylphenyl)amino)-1-(4-methoxyphenyl)-3-methyl-1,3-dihydro-2H-imidazo[4,5-c]pyridin-2-one] was tested, and the “D1 (radiation dose for 1% surviving fraction)” value (UT-SCC-54C cells [1]; 20% O2, compound conc 0.33 μM) was 1.53 Gy, the “D10 (radiation dose for 10% surviving fraction)” value (UT-SCC-54C cells [1]; 20% O2, compound conc 0.33 μM) was 4.67 Gy and the “D1 (radiation dose for 1% surviving fraction)” value (UT-SCC-54C cells [1]; 20% O2, compound conc 1 μM) was 2.75 Gy. For the same molecule, the “D10 (radiation dose for 10% surviving fraction)” value (UT-SCC-54C cells [1]; 20% O2, compound conc 1 μM) was 2.60 Gy, the “D1 (radiation dose for 1% surviving fraction)” value (UT-SCC-54C cells [1]; 20% O2, compound conc 3 μM) was 3.90 Gy and the “D10 (radiation dose for 10% surviving fraction)” value (UT-SCC-54C cells [1]; 20% O2, compound conc 3 μM) was 1.83 Gy. For the same molecule, the “radiosensitisation, clonogenic survival endpoint” value (UT-SCC-54C cells [1]; UT-SCC-54C, FIG. 8 and Table 18) was “concentration-dependent increases in radiosensitisation”.
COc1ccc(-n2c(=O)n(C)c3cnc(Nc4cc(S(C)(=O)=O)ccc4C)cc32)cc1 [Compound 197, 1-(4-Methoxyphenyl)-3-methyl-6-((2-methyl-5-(methylsulfonyl)phenyl)amino)-1,3-dihydro-2H-imidazo[4,5-c]pyridin-2-one] showed an IC50 (human DNA-PK) of 0.09 nM, an IC50 (human PI3Kα (p110α/p85α)) of 0.033 µM and an IC50 (human mTOR) of 33400 nM.
COc1ccc(-n2c(=O)n(C)c3cnc(Nc4ccc(OCc5cnc([N+](=O)[O-])n5C)cc4C)cc32)cc1 [Compound 246, 1-(4-Methoxyphenyl)-3-methyl-6-((2-methyl-4-((1-methyl-2-nitro-1H-imidazol-5-yl)methoxy)phenyl)amino)-1,3-dihydro-2H-imidazo[4,5-c]pyridin-2-one] was tested, and the IC50 (human DNA-PK) was 116 nM, the IC50 (human PI3Kα (p110α/p85α)) was 1.28 µM and the IC50 (UT-SCC-54C cells [2]) was > 10 µM. The “S50” value (UT-SCC-54C cells [2]) was 6.08 µM and the “radiosensitisation / differential growth inhibition of UT-SCC-54C cells” value (UT-SCC-54C cells [2]) was “did not display any differential growth inhibition”.
For Cc1cc(OC(C)c2cnc([N+](=O)[O-])n2C)ccc1Nc1cc2c(cn1)n(C)c(=O)n2C1CCOCC1 (stereo not shown) [Compound 238, 3-Methyl-6-((2-methyl-4-(1-(1-methyl-2-nitro-1H-imidazol-5-yl)ethoxy)phenyl)amino)-1-(tetrahydro-2H-pyran-4-yl)-1,3-dihydro-2H-imidazo[4,5-c]pyridin-2-one], the IC50 (UT-SCC-54C cells [2]) was > 10 µM, the “S50” value (UT-SCC-54C cells [2]) was >10 µM and the “radiosensitisation / differential growth inhibition of UT-SCC-54C cells” value (UT-SCC-54C cells [2]) was “did not display any differential growth inhibition”. For the same molecule, the “D1 (radiation dose for 1% surviving fraction)” value (UT-SCC-54C cells [1]; 0% O2, compound conc 1 μM) was 15.0 Gy, the “D10 (radiation dose for 10% surviving fraction)” value (UT-SCC-54C cells [1]; 0% O2, compound conc 1 μM) was 8.46 Gy and the “SER1 (sensitiser enhancement ratio at 1% surviving fraction)” value (UT-SCC-54C cells [1]; 0% O2, compound conc 1 μM) was 1.44. For the same molecule, the “SER10 (sensitiser enhancement ratio at 10% surviving fraction)” value (UT-SCC-54C cells [1]; 0% O2, compound conc 1 μM) was 1.65, the “Plating efficiency drug/no drug” value (UT-SCC-54C cells [1]; 0% O2, compound conc 1 μM) was 1.02 and the “sensitisation of UT-SCC-54C cells selectively under anoxia” value (UT-SCC-54C cells [1]) was “provide sensitisation of UT-SCC-54C cells selectively under anoxia”.
With COc1ccc(-c2ccc(Nc3cc4c(cn3)n(C)c(=O)n4C3CCOCC3)cc2)cn1 [Compound 223, 6-((4-(6-Methoxypyridin-3-yl)phenyl)amino)-3-methyl-1-(tetrahydro-2H-pyran-4-yl)-1,3-dihydro-2H-imidazo[4,5-c]pyridin-2-one] the IC50 (human DNA-PK) was 3940 nM, the IC50 (human PI3Kα (p110α/p85α)) was 11.8 µM and the IC50 (human mTOR) was 41200 nM.
For COc1ccc(N(C(=O)OCc2ccccc2)c2cc3c(cn2)n(C)c(=O)n3C2CCN(C(=O)OC(C)(C)C)CC2)c(C)c1 [Compound 154, tert-Butyl 4-(6-(((Benzyloxy)carbonyl)(4-methoxy-2-methylphenyl)amino)-3-methyl-2-oxo-2,3-dihydro-1H-imidazo[4,5-c]pyridin-1-yl)piperidine-1-carboxylate], the IC50 (UT-SCC-54C cells [2]) was > 10 µM and the “S50” value (UT-SCC-54C cells [2]) was 2.06 µM.
COc1ccc(Nc2cc3c(cn2)n(C)c(=O)n3C2CCN(C(=O)OCc3cnc([N+](=O)[O-])n3C)CC2)c(C)c1 [Compound 252, (1-Methyl-2-nitro-1H-imidazol-5-yl)methyl 4-(6-((4-methoxy-2-methylphenyl)amino)-3-methyl-2-oxo-2,3-dihydro-1H-imidazo[4,5-c]pyridin-1-yl)piperidine-1-carboxylate] gave an IC50 (human DNA-PK) of 104 nM, an IC50 (human PI3Kα (p110α/p85α)) of 0.74 µM and an IC50 (human mTOR) of 15600 nM.
With Cc1cc(Cl)ccc1Nc1cc2c(cn1)n(C)c(=O)n2-c1ccc(C(C)(C)C#N)cc1 [Compound 212, 2-(4-(6-((4-Chloro-2-methylphenyl)amino)-3-methyl-2-oxo-2,3-dihydro-1H-imidazo[4,5-c]pyridin-1-yl)phenyl)-2-methylpropanenitrile] the IC50 (human DNA-PK) was < 0.51 nM, the IC50 (human PI3Kα (p110α/p85α)) was 0.803 µM and the IC50 (UT-SCC-54C cells [2]) was > 10 µM. The “S50” value (UT-SCC-54C cells [2]) was 0.51 µM.
Work on Cn1c(=O)n(-c2ccc(C(C)(C)C#N)cc2)c2cc(Nc3ccc4nccnc4c3)ncc21 [Compound 214, 2-Methyl-2-(4-(3-methyl-2-oxo-6-(quinoxalin-6-ylamino)-2,3-dihydro-1H-imidazo[4,5-c]pyridin-1-yl)phenyl)propanenitrile] yielded an IC50 (human DNA-PK) of 43 nM.
In the case of COc1ccc(N(C(=O)OC(C)c2cnc([N+](=O)[O-])n2C)c2cc3c(cn2)n(C)c(=O)n3C2CCOCC2)c(C)c1 (stereo not shown) [Compound 250, 1-(1-Methyl-2-nitro-1H-imidazol-5-yl)ethyl (4-methoxy-2-methylphenyl)(3-methyl-2-oxo-1-(tetrahydro-2H-pyran-4-yl)-2,3-dihydro-1H-imidazo[4,5-c]pyridin-6-yl)carbamate], the IC50 (UT-SCC-54C cells [2]) is reported as > 10 µM, the “S50” value (UT-SCC-54C cells [2]) is reported as >10 µM and the “radiosensitisation / differential growth inhibition of UT-SCC-54C cells” value (UT-SCC-54C cells [2]) is reported as “did not display any differential growth inhibition”. The “D1 (radiation dose for 1% surviving fraction)” value (UT-SCC-54C cells [1]; 0% O2, compound conc 1 μM) was 10.83 Gy, the “D10 (radiation dose for 10% surviving fraction)” value (UT-SCC-54C cells [1]; 0% O2, compound conc 1 μM) was 5.78 Gy and the “SER1 (sensitiser enhancement ratio at 1% surviving fraction)” value (UT-SCC-54C cells [1]; 0% O2, compound conc 1 μM) was 1.87. For the same molecule, the “SER10 (sensitiser enhancement ratio at 10% surviving fraction)” value (UT-SCC-54C cells [1]; 0% O2, compound conc 1 μM) was 2.09, the “Plating efficiency drug/no drug” value (UT-SCC-54C cells [1]; 0% O2, compound conc 1 μM) was 0.98 and the “sensitisation of UT-SCC-54C cells selectively under anoxia” value (UT-SCC-54C cells [1]) was “provide sensitisation of UT-SCC-54C cells selectively under anoxia”.
For Cc1ccncc1Nc1cc2c(cn1)n(C)c(=O)n2C1CCCC1 [Compound 78, 1-Cyclopentyl-3-methyl-6-((4-methylpyridin-3-yl)amino)-1,3-dihydro-2H-imidazo[4,5-c]pyridin-2-one], the IC50 (UT-SCC-54C cells [2]) was > 10 µM and the “S50” value (UT-SCC-54C cells [2]) was 4.09 µM.
For COc1ccc(-n2c(=O)n(C)c3cnc(Nc4ccc(S(C)(=O)=O)cc4C)cc32)cc1 [Compound 198, 1-(4-Methoxyphenyl)-3-methyl-6-((2-methyl-4-(methylsulfonyl)phenyl)amino)-1,3-dihydro-2H-imidazo[4,5-c]pyridin-2-one], the IC50 (human DNA-PK) was 23 nM, the IC50 (human PI3Kα (p110α/p85α)) was 1.8 µM and the IC50 (UT-SCC-54C cells [2]) was > 10 µM. The “S50” value (UT-SCC-54C cells [2]) was 0.17 µM.
Cc1cc(OCc2ccccc2)ccc1Nc1cc2c(cn1)n(C)c(=O)n2C1CCOCC1 [Compound 124, 6-((4-(Benzyloxy)-2-methylphenyl)amino)-3-methyl-1-(tetrahydro-2H-pyran-4-yl)-1,3-dihydro-2H-imidazo[4,5-c]pyridin-2-one] gave an IC50 (human DNA-PK) of 422 nM and an IC50 (human PI3Kα (p110α/p85α)) of 5.45 µM.
Cc1cc(Cl)ccc1N(C(=O)OCc1ccccc1)c1cc2c(cn1)n(C)c(=O)n2C1CCOCC1 [Compound 134, Benzyl (4-Chloro-2-methylphenyl)(3-methyl-2-oxo-1-(tetrahydro-2H-pyran-4-yl)-2,3-dihydro-1H-imidazo[4,5-c]pyridin-6-yl)carbamate] was tested, and the IC50 (human DNA-PK) was > 10000 nM and the IC50 (human PI3Kα (p110α/p85α)) was > 10 µM.
Cc1cc(OCc2ncc([N+](=O)[O-])n2C)ccc1Nc1cc2c(cn1)n(C)c(=O)n2C1CCOCC1 [Compound 240, 3-Methyl-6-((2-methyl-4-((1-methyl-5-nitro-1H-imidazol-2-yl)methoxy)phenyl)amino)-1-(tetrahydro-2H-pyran-4-yl)-1,3-dihydro-2H-imidazo[4,5-c]pyridin-2-one] was tested, and the IC50 (UT-SCC-54C cells [2]) was > 10 µM, the “S50” value (UT-SCC-54C cells [2]) was >10 µM and the “radiosensitisation / differential growth inhibition of UT-SCC-54C cells” value (UT-SCC-54C cells [2]) was “did not display any differential growth inhibition”.
For Cn1c(=O)n(C2CCCC2)c2cc(Nc3ccc4ncsc4c3)ncc21 [Compound 70, 6-(Benzo[d]thiazol-6-ylamino)-1-cyclopentyl-3-methyl-1,3-dihydro-2H-imidazo[4,5-c]pyridin-2-one], the IC50 (UT-SCC-54C cells [2]) was > 10 µM and the “S50” value (UT-SCC-54C cells [2]) was 2.62 µM.
With Cc1cc(Cl)ccc1Nc1cc2c(cn1)n(C)c(=O)n2C1CCOCC1 [Compound 122, 6-((4-Chloro-2-methylphenyl)amino)-3-methyl-1-(tetrahydro-2H-pyran-4-yl)-1,3-dihydro-2H-imidazo[4,5-c]pyridin-2-one] the IC50 (human PI3Kα (p110α/p85α)) was 2.53 µM and 5.53 µM, the IC50 (UT-SCC-54C cells [2]) was > 10 µM and the “S50” value (UT-SCC-54C cells [2]) was 0.38 µM. The IC50 (human mTOR) was 46600 nM and 56100 nM.
For COc1ccc(-n2c(=O)n(C)c3cnc(Nc4ccc(Cl)cc4C)cc32)cc1 [Compound 196, 6-((4-Chloro-2-methylphenyl)amino)-1-(4-methoxyphenyl)-3-methyl-1,3-dihydro-2H-imidazo[4,5-c]pyridin-2-one], the IC50 (human DNA-PK) was 0.27 nM, the IC50 (human PI3Kα (p110α/p85α)) was 0.237 µM and the IC50 (UT-SCC-54C cells [2]) was > 10 µM. For the same molecule, the “S50” value (UT-SCC-54C cells [2]) was 0.68 µM.
With COc1ccc(-n2c(=O)n(C)c3cnc(N(C(=O)OCc4cnc([N+](=O)[O-])n4C)c4ccc(OC)cc4C)cc32)cc1 [Compound 259, (1-Methyl-2-nitro-1H-imidazol-5-yl)methyl (4-methoxy-2-methylphenyl)(1-(4-methoxyphenyl)-3-methyl-2-oxo-2,3-dihydro-1H-imidazo[4,5-c]pyridin-6-yl)carbamate] the IC50 (UT-SCC-54C cells [2]) was > 10 µM, the “S50” value (UT-SCC-54C cells [2]) was >10 µM and the “radiosensitisation / differential growth inhibition of UT-SCC-54C cells” value (UT-SCC-54C cells [2]) was “did not display any differential growth inhibition”.
Work on COc1ccc(-n2c(=O)n(C)c3cnc(Nc4ccc(OCc5ccccc5)cc4C)cc32)cc1 [Compound 199, 6-((4-(Benzyloxy)-2-methylphenyl)amino)-1-(4-methoxyphenyl)-3-methyl-1,3-dihydro-2H-imidazo[4,5-c]pyridin-2-one] yielded an IC50 (human DNA-PK) of 55 nM.
